Calls of active or inactive are those of the source. The rule behind the calls is not given here.
Experiments:
[1] = target: T1, von Hippel-Lindau disease tumor suppressor/E3 ubiquitin-protein ligase Mdm2 (Homo sapiens, UniProt Q00987+P40337); test: Protac activity at VHL/MDM2 in human MCF7 cells assessed as reduction in MDM2 protein level after 48 hrs by Western blotting analysis; type: cell-based
[2] = system: MCF7; test: Antiproliferative activity against human MCF7 cells assessed as cell viability at 100 uM incubated for 48 to 72 hrs by MTT assay; type: functional; conditions: time 48-72 hrs, read-out: Activity
[3] = target: T1, von Hippel-Lindau disease tumor suppressor/E3 ubiquitin-protein ligase Mdm2; test: Protac activity at VHL/MDM2 in human MCF7 cells assessed as upregulation of p53 level at 75 to 105 uM after 48 hrs by Western blotting analysis; type: cell-based; conditions: dose 75-105 µM
Target sequence in this assay (P40337 whole entry, looked up): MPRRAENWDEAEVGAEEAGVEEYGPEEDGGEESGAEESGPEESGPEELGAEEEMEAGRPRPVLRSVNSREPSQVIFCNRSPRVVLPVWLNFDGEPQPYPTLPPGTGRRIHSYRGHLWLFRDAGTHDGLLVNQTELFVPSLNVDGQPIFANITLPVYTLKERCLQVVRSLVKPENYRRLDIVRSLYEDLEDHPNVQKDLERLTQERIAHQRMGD
Target sequence in this assay (Q00987 whole entry, looked up): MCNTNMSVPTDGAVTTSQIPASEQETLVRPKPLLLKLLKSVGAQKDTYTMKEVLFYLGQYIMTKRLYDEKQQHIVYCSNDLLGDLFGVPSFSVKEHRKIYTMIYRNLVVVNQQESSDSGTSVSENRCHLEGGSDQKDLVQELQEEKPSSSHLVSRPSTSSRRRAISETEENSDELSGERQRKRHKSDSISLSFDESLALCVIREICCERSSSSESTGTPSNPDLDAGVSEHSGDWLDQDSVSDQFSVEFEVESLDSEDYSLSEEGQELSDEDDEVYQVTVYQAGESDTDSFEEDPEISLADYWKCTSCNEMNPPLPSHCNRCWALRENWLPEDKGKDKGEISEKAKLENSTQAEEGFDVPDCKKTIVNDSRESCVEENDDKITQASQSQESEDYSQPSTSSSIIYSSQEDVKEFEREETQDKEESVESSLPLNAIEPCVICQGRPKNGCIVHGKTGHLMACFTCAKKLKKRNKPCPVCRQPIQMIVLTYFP

[4] = system: HepG2; test: Antiproliferative activity against human HepG2 cells assessed as cell viability at 100 uM incubated for 48 to 72 hrs by MTT assay; type: functional; conditions: time 48-72 hrs, read-out: Activity
[5] = system: SJSA-1; test: Antiproliferative activity against human SJSA-1 cells assessed as cell viability at 100 uM incubated for 48 to 72 hrs by MTT assay; type: functional; conditions: time 48-72 hrs, read-out: Activity
[6] = target: T1, von Hippel-Lindau disease tumor suppressor/E3 ubiquitin-protein ligase Mdm2; test: Protac activity at VHL/MDM2 in human MCF7 cells assessed as reduction in MDM2 protein level at 100 uM pretreated with MG-132 for 2 hrs followed by compound addition and measured after 48 hrs by Western blotting analysis; type: cell-based
Target sequence in this assay (P40337 whole entry, looked up): as the sequence (P40337 whole entry, looked up) above
Target sequence in this assay (Q00987 whole entry, looked up): as the sequence (Q00987 whole entry, looked up) above

[7] = Cytotoxicity against mouse HT-22 cells assessed as cell viability at 100 uM incubated for 48 to 72 hrs by MTT assay; type: toxicity, cell-based; conditions: time 48-72 hrs, read-out: Activity
[8] = target: E3 ubiquitin-protein ligase Mdm2 (Homo sapiens, UniProt Q00987); test: Binding affinity to MDM2 (unknown origin) by SPR assay
[9] = system: MDA-MB-231; test: Antiproliferative activity against human MDA-MB-231 cells assessed as cell viability at 100 uM incubated for 48 to 72 hrs by MTT assay; type: functional; conditions: time 48-72 hrs, read-out: Activity
[10] = target: T1, von Hippel-Lindau disease tumor suppressor/E3 ubiquitin-protein ligase Mdm2; test: Protac activity at VHL/MDM2 in human MCF7 cells assessed as upregulation of p21 level at 75 to 105 uM after 48 hrs by Western blotting analysis; type: cell-based; conditions: dose 75-105 µM
Target sequence in this assay (P40337 whole entry, looked up): as the sequence (P40337 whole entry, looked up) above
Target sequence in this assay (Q00987 whole entry, looked up): as the sequence (Q00987 whole entry, looked up) above

Chain of E3 ubiquitin-protein ligase Mdm2 (Q00987 whole entry): as the sequence (Q00987 whole entry, looked up) above

Activity [1]: Dose-Dependent Effect | DC50 [1]: 100 µM | Activity [3]: Active | Activity [6]: inactive | Kd [8]: 32.4 µM | Activity [10]: Active
SMILES: Cc1ncsc1-c1ccc([C@H](C)NC(=O)[C@@H]2C[C@@H](O)CN2C(=O)[C@@H](NC(=O)CCCCc2cn(CCOCCOCCOCCNC(=O)[C@H](C)CC(=O)C[C@@H](C)[C@H]3C[C@H](O)[C@@]4(C)C5=C(C(=O)C[C@]34C)[C@@]3(C)CCC(=O)C(C)(C)[C@@H]3C[C@@H]5O)nn2)C(C)(C)C)cc1
viability at 100 µM [2]: 24.9% | viability at 100 µM [4]: 90.2% | viability at 100 µM [5]: 69.6% | viability at 100 µM [7]: 91.8% | viability at 100 µM [9]: 35.4%

Reference: ChEMBL document CHEMBL5500349, “Discovery of ganoderic acid A (GAA) PROTACs as MDM2 protein degraders for the treatment of breast cancer” (Eur J Med Chem, 2024)
